Experimental data published in ChEMBL document CHEMBL1201862, “PubChem BioAssay data set” (2004).
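Compound exposure: 48 hours, 5 concentrations, 96-well plates. The concentration for 50% growth inhibition is given as GI50.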 The source made the active and inactive calls. No stated cut-off is given here; in the data, active = GI50 up to about 1.1 µM and inactive = higher.

Key:
Assay in all cases: inhibition of tumour cell growth, NCI panel, 48 h
[1] = system: A549
[2] = system: NCI-H23
[3] = system: T47D
[4] = system: HCC 2998
[5] = system: MDA-N
[6] = system: A498
[7] = system: UO-31
[8] = system: MCF7
[9] = system: K562
[10] = system: Hs-578T
[11] = system: SR
[12] = system: HT-29
[13] = system: NCI-H460
[14] = system: SW-620
[15] = system: IGROV-1
[16] = system: NCI-H226
[17] = system: SF-268
[18] = system: MDA-MB-231
[19] = system: NCI/ADR-RES

Structure (SMILES) | GI50 [1] | GI50 [2] | GI50 [3] | GI50 [4] | GI50 [5] | GI50 [6] | GI50 [7] | GI50 [8] | GI50 [9] | GI50 [10] | GI50 [11] | GI50 [12] | GI50 [13] | GI50 [14] | GI50 [15] | GI50 [16] | GI50 [17] | GI50 [18] | GI50 [19]
CCCCCC1=CC(=O)C1(Cl)Cl | 23.5 µM (inactive) | 14.3 µM (inactive) | 8.24 µM (inactive) | 14.2 µM (inactive) | 10.5 µM (inactive) | 20.4 µM (inactive) | 15.4 µM (inactive) | 8.11 µM (inactive) | 4.68 µM (inactive) | 19 µM (inactive) | 6 µM (inactive) | 14.6 µM (inactive) | 19.6 µM (inactive) | 11.9 µM (inactive) | 18.4 µM (inactive) | 15.3 µM (inactive) | 14.7 µM (inactive) | 9.93 µM (inactive) | 17.9 µM (inactive)
CC(=O)Oc1ccc(/C=C/C(=O)OCCOC(=O)/C=C/c2ccc(OC(C)=O)c(OC(C)=O)c2)cc1OC(C)=O | 16.1 µM (inactive) | 4.26 µM (inactive) | 13 µM (inactive) | 14.5 µM (inactive) | 7.14 µM (inactive) | 22 µM (inactive) | 4.01 µM (inactive) | 9.64 µM (inactive) | 4.89 µM (inactive) | 16.8 µM (inactive) | 3.78 µM (inactive) | 18.6 µM (inactive) | 11.9 µM (inactive) | 9.38 µM (inactive) | 2.95 µM (inactive) | 14.9 µM (inactive) | 8.43 µM (inactive) | 14.5 µM (inactive) | 4.06 µM (inactive)
COC1CC(C)([N+](=O)[O-])C(O)C(C)O1 (configuration not stated) | > 100 µM (inactive) | > 100 µM (inactive) | > 100 µM (inactive) | > 100 µM (inactive) | > 100 µM (inactive) | > 100 µM (inactive) | > 100 µM (inactive) | > 100 µM (inactive) | > 100 µM (inactive) | > 100 µM (inactive) | > 100 µM (inactive) | > 100 µM (inactive) | > 100 µM (inactive) | > 100 µM (inactive) | > 100 µM (inactive) | > 100 µM (inactive) | > 100 µM (inactive) | > 100 µM (inactive) | > 100 µM (inactive)
Cc1c(CN2CCN(C)CC2)c(CN2CCN(C)CC2)c(C)n1-c1ccc(Cl)cc1 | 30.4 µM (inactive) | 54.2 µM (inactive) | 19.2 µM (inactive) | 39.7 µM (inactive) | 21 µM (inactive) | 13.6 µM (inactive) | 26.9 µM (inactive) | 39.5 µM (inactive) | 23.4 µM (inactive) | 24 µM (inactive) | 17.4 µM (inactive) | 18.2 µM (inactive) | 50.7 µM (inactive) | 54.2 µM (inactive) | 31.2 µM (inactive) | 33.6 µM (inactive) | 44.4 µM (inactive) | 68.5 µM (inactive) | > 100 µM (inactive)
Cc1cc2c(cc1C)C(=O)C1(C2)Cc2cc3c(cc2C1=O)CCC3 (configuration not stated) | > 100 µM (inactive) | > 100 µM (inactive) | > 100 µM (inactive) | > 100 µM (inactive) | > 100 µM (inactive) | > 100 µM (inactive) | > 100 µM (inactive) | > 100 µM (inactive) | > 100 µM (inactive) | > 100 µM (inactive) | > 100 µM (inactive) | > 100 µM (inactive) | > 100 µM (inactive) | > 100 µM (inactive) | > 100 µM (inactive) | > 100 µM (inactive) | > 100 µM (inactive) | > 10 µM (inactive) | > 100 µM (inactive)
Cc1c(O)ccc2c(O)c(NC(=O)c3ccc4c(c3)CCC(C)(C)O4)c(=O)oc12 [CYCLONOVOBIOCIC ACID] | > 100 µM (inactive) | > 100 µM (inactive) | > 100 µM (inactive) | > 100 µM (inactive) | > 100 µM (inactive) | 45.8 µM (inactive) | > 100 µM (inactive) | > 100 µM (inactive) | > 100 µM (inactive) | > 100 µM (inactive) | > 100 µM (inactive) | > 100 µM (inactive) | > 100 µM (inactive) | > 100 µM (inactive) | > 100 µM (inactive) | > 100 µM (inactive) | > 100 µM (inactive) | > 100 µM (inactive) | > 100 µM (inactive)
CCOC(=O)c1cc(-c2ccn(C(C)=O)c2)c(-c2cc(C)co2)[nH]1 | > 100 µM (inactive) | > 100 µM (inactive) | > 100 µM (inactive) | > 100 µM (inactive) | > 100 µM (inactive) | > 100 µM (inactive) | > 100 µM (inactive) | > 100 µM (inactive) | > 100 µM (inactive) | > 100 µM (inactive) | > 100 µM (inactive) | – | > 100 µM (inactive) | > 100 µM (inactive) | > 100 µM (inactive) | > 100 µM (inactive) | > 100 µM (inactive) | > 100 µM (inactive) | > 100 µM (inactive)
CC(C)SC(C)(NC(=O)C1C(C)(C)CCC1(C)C)C(=O)O (configuration not stated) | > 100 µM (inactive) | > 100 µM (inactive) | > 100 µM (inactive) | > 100 µM (inactive) | > 100 µM (inactive) | > 100 µM (inactive) | > 100 µM (inactive) | > 100 µM (inactive) | > 100 µM (inactive) | > 100 µM (inactive) | > 100 µM (inactive) | – | > 100 µM (inactive) | > 100 µM (inactive) | – | > 100 µM (inactive) | > 100 µM (inactive) | > 100 µM (inactive) | > 100 µM (inactive)
COc1ccc(NC(=O)CC(=O)NNC(Sc2ccccc2)c2cc(/N=N/c3ccc(Br)cc3)ccc2O)cc1 (configuration not stated) | > 10 µM (inactive) | > 10 µM (inactive) | > 10 µM (inactive) | > 10 µM (inactive) | > 10 µM (inactive) | > 10 µM (inactive) | > 10 µM (inactive) | > 10 µM (inactive) | > 10 µM (inactive) | > 10 µM (inactive) | 8.89 µM (inactive) | > 10 µM (inactive) | > 10 µM (inactive) | > 10 µM (inactive) | > 10 µM (inactive) | 2.74 µM (inactive) | > 10 µM (inactive) | > 10 µM (inactive) | > 10 µM (inactive)
CC1(C)CCCCC1/C=C/C(CC(O)(C(F)(F)F)C(F)(F)F)=N\Nc1ccc([N+](=O)[O-])cc1[N+](=O)[O-] (configuration not stated) | 1.26 µM (inactive) | 0.29 µM (active) | 0.365 µM (active) | 4.55 µM (inactive) | 2.84 µM (inactive) | 1.25 µM (inactive) | 0.706 µM (active) | 0.573 µM (active) | 0.368 µM (active) | 0.575 µM (active) | 0.518 µM (active) | 1.76 µM (inactive) | 0.604 µM (active) | 1.86 µM (inactive) | 0.514 µM (active) | 0.498 µM (active) | 0.527 µM (active) | 2.03 µM (inactive) | 4.32 µM (inactive)
CCC(=O)O[C@H]1CC[C@H]2[C@@H]3CCC4=C/C(=N/NC(=O)c5cccc6c(=O)c7ccccc7[nH]c56)CC[C@]4(C)[C@H]3CC[C@]12C | > 25 µM (inactive) | > 25 µM (inactive) | > 25 µM (inactive) | > 25 µM (inactive) | > 25 µM (inactive) | > 25 µM (inactive) | > 25 µM (inactive) | > 25 µM (inactive) | > 25 µM (inactive) | > 25 µM (inactive) | > 25 µM (inactive) | > 25 µM (inactive) | > 25 µM (inactive) | > 25 µM (inactive) | > 25 µM (inactive) | > 25 µM (inactive) | > 25 µM (inactive) | > 25 µM (inactive) | > 25 µM (inactive)
Cc1cn(CCOCCOC(=O)NC(CCCNC(=N)N)C(=O)O)c(=O)[nH]c1=O (configuration not stated) | > 100 µM (inactive) | > 100 µM (inactive) | > 100 µM (inactive) | > 100 µM (inactive) | > 100 µM (inactive) | > 100 µM (inactive) | > 100 µM (inactive) | > 100 µM (inactive) | > 100 µM (inactive) | > 100 µM (inactive) | > 100 µM (inactive) | > 100 µM (inactive) | > 100 µM (inactive) | > 100 µM (inactive) | > 100 µM (inactive) | > 100 µM (inactive) | > 100 µM (inactive) | > 100 µM (inactive) | 26.8 µM (inactive)
CCOC(=O)c1cccc(NC(=O)CCl)c1 | 10.4 µM (inactive) | 3.22 µM (inactive) | 2.48 µM (inactive) | 2.19 µM (inactive) | 3.92 µM (inactive) | 15.2 µM (inactive) | 4.04 µM (inactive) | 2.26 µM (inactive) | 3.08 µM (inactive) | 2.93 µM (inactive) | 1.77 µM (inactive) | 3.81 µM (inactive) | 1.19 µM (inactive) | 3.32 µM (inactive) | 2.48 µM (inactive) | 6.55 µM (inactive) | 2.11 µM (inactive) | 4.57 µM (inactive) | 3.61 µM (inactive)
CCCCC1Cc2ccccc2-c2nc3ccccc3n21 (configuration not stated) | – | 14.9 µM (inactive) | 7.06 µM (inactive) | 14.2 µM (inactive) | 15.1 µM (inactive) | 16.7 µM (inactive) | 19.1 µM (inactive) | 17.3 µM (inactive) | 12.6 µM (inactive) | 17.1 µM (inactive) | 5.57 µM (inactive) | 14.5 µM (inactive) | 14.3 µM (inactive) | 16.4 µM (inactive) | 15.8 µM (inactive) | 19.4 µM (inactive) | 17.3 µM (inactive) | 17.3 µM (inactive) | 15.7 µM (inactive)
